molecular target: T1, Human HPK1, catalytic domain (Homo sapiens, UniProt Q92918); assay: HPK1-SLP76 TR-FRET assay; format: biochemical; conditions: 75 pM HPK1, 10 uM ATP, 10 nM SLP76, 30 min compound pre-incubation
T1 construct: purchased Carna
T1 sequence (Q92918 1-346): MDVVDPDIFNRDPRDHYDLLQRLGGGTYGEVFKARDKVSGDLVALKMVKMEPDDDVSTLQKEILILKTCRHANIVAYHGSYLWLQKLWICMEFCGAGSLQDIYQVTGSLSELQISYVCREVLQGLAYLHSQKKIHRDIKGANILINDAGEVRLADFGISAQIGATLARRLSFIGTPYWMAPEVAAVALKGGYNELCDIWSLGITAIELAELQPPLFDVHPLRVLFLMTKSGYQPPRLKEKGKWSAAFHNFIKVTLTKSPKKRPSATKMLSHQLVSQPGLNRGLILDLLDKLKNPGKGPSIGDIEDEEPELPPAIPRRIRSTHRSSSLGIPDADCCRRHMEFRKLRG

Row | IC50 [nM] | Structure (SMILES)
1 | 20.1 | NC(=O)c1cnc(Nc2cccc(C(F)(F)F)c2)nc1Nc1cccc2c1CCNC2=O [Example 25-18, 4-[(1-oxo-1,2,3,4-tetrahydroisoquinolin-5-yl)amino]-2-{[3-(trifluoromethyl)phenyl]amino}pyrimidine-5-carboxamide]
2 | 19.4 | Cc1ccc(Nc2ncc(C(N)=O)c(Nc3cccc4c3CCNC4=O)n2)c(F)c1F [Example 25-39, 2-[(2,3-difluoro-4-methylphenyl)amino]-4-[(1-oxo-1,2,3,4-tetrahydroisoquinolin-5-yl)amino]pyrimidine-5-carboxamide]
3 | 14.5 | NC(=O)c1cnc(Nc2cccc(OC(F)F)c2)nc1Nc1cccc2c1CCNC2=O [Example 25-16, 2-{[3-(difluoromethoxy)phenyl]amino}-4-[(1-oxo-1,2,3,4-tetrahydroisoquinolin-5-yl)amino]pyrimidine-5-carboxamide]
4 | 81.6 | Cc1cccc(F)c1Nc1nc(Nc2ccc(S(C)(=O)=O)cc2)ncc1C(N)=O [Example 4-25, 4-[(2-fluoro-6-methylphenyl)amino]-2-{[4-(methylsulfonyl)phenyl]amino} pyrimidine-5-carboxamide]
5 | 3.72 | CC(C)c1cccc(Nc2ncc(C(N)=O)c(Nc3cccc4c3CCNC4=O)n2)c1 [Example 25-28, 4-[(1-oxo-1,2,3,4-tetrahydroisoquinolin-5-yl)amino]-2-{[3-(propan-2-yl)phenyl]amino}pyrimidine-5-carboxamide]
6 | 1.26 | COc1cc(C2CCCN2)ccc1Nc1ncc(C(N)=O)c(Nc2ccccc2C(F)(F)F)n1 (stereo not shown) [Example 8-1, 2-((2-Methoxy-4-(pyrrolidin-2-yl)phenyl)amino)-4-((2-(trifluoromethyl)phenyl)amino)pyrimidine-5-carboxamide]
7 | 15.3 | Cn1cc(Nc2ncc(C(N)=O)c(Nc3cccc4c3CCNC4=O)n2)c(OCC(F)F)n1 [Example 7-55, 2-{[3-(2,2-difluoroethoxy)-1-methyl-1H-pyrazol-4-yl]amino}-4-[(1-oxo-1,2,3,4-tetrahydroisoquinolin-5-yl)amino]pyrimidine-5-carboxamide]

The remaining lines, values behind:

Row | Structure (SMILES) | IC50 [nM]
8 | COc1cc2c(cc1Nc1ncc(C(N)=O)c(Nc3ccccc3C(F)(F)F)n1)C(C1CC1)N(C)CC2 (single isomer, unassigned) [Example 20-2, 2-((1-cyclopropyl-6-methoxy-2-methyl-1,2,3,4-tetrahydroisoquinolin-7-yl)amino)-4-((2-(trifluoromethyl)phenyl)amino)pyrimidine-5-carboxamide] | 0.12
9 | COCC(=O)N1CCc2cc(OC)c(Nc3ncc(C(N)=O)c(Nc4ccccc4Br)n3)cc2C1 [Example 12-5, 4-[(2-bromophenyl)amino]-2-{[6-methoxy-2-(methoxyacetyl)-1,2,3,4-tetrahydroisoquinolin-7-yl]amino}pyrimidine-5-carboxamide] | 112
10 | COc1cc2c(cc1Nc1ncc(C(N)=O)c(Nc3ccccc3Br)n1)CN(C1CC(CO)C1)CC2 (single isomer, unassigned) [Example 9-3, 4-((2-bromophenyl)amino)-2-((2-(3-(hydroxymethyl)cyclobutyl)-6-methoxy-1,2,3,4-tetrahydroisoquinolin-7-yl)amino)pyrimidine-5-carboxamide] | 0.33
11 | COc1cc2c(cc1Nc1ncc(C(N)=O)c(Nc3ccccc3C3CCOCC3)n1)CN(C)CC2 [Example 13-13, 2-[(6-methoxy-2-methyl-1,2,3,4-tetrahydroisoquinolin-7-yl)amino]-4-{[2-(oxan-4-yl)phenyl]amino}pyrimidine-5-carboxamide] | 1.09
12 | COc1cc2c(cc1Nc1ncc(C(N)=O)c(Nc3c(F)cccc3F)n1)CNCC2 [Example 9-11, 4-(2,6-difluoroanilino)-2-[(6-methoxy-1,2,3,4-tetrahydroisoquinolin-7-yl)amino]pyrimidine-5-carboxamide] | 0.79
13 | COc1cc2c(cc1Nc1ncc(C(N)=O)c(NC3CCc4ccc(C)cc43)n1)CN(C)CC2 (stereo not shown) [Example 26-71, 2-[(6-methoxy-2-methyl-1,2,3,4-tetrahydroisoquinolin-7-yl)amino]-4-[(6-methyl-2,3-dihydro-1H-inden-1-yl)amino]pyrimidine-5-carboxamide] | 32.8

— patent US20230416225A1, “DIAMINOPYRIMIDINE CARBOXAMIDE INHIBITORS OF HPK1” (MERCK SHARP & DOHME LLC, priority 2020, published 2023)
